Test results from patent US20240132431A1, “METHOD FOR ALKYLATING ACIDIC FUNCTIONAL GROUP” (Chugai Seiyaku Kabushiki Kaisha, priority 2021, published 2024).

Target: T1, Bcl-2 protein (Recombinant Human Bcl-2 Protein) (Homo sapiens, UniProt P10415)
T1 construct: purchased Novus NBP2-34889
Test: Binding evaluation of mixture library compounds to Bcl-2 using AS-MS (affinity selection mass spectrometry)
Settings: for ASMS ratio (%) n = 1 / ASMS ratio (%) n = 2: ASMS Ratio(%)=(A−C)/B×100; for ASMS ratio (%) n = 1: replicate n = 1; for ASMS ratio (%) n = 2: replicate n = 2
How it was run: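 Pooled library of ~1200 compounds ([…] each, final) incubated with recombinant human Bcl-2 (20 μM final) in Tris-HCl pH 7.4, NaCl, Tween-20, DTT buffer, dark, 23° C., 1 h. Bound fraction recovered by SEC spin column, organic extraction, reversed-phase LC/MS. ASMS Ratio (%) = (A−C)/B×100 versus protein-free standard and SEC blank.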

[1] = AS-MS, mixture of 1200 compounds, Bcl-2
[2] = AS-MS on the mixture of 1200 library compounds

T1 sequence (P10415 whole entry): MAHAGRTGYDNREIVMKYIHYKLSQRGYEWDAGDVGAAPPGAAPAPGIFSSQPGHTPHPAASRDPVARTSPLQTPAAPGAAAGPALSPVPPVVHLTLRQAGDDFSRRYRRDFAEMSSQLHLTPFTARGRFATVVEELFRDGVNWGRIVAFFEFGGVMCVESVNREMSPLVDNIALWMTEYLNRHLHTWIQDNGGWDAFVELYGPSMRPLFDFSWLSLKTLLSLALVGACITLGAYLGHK

| ASMS ratio (%) n = 1 [1] [%] | ASMS ratio (%) n = 2 [1] [%] | ASMS ratio (%) n = 1 (AS-MS, mixture library, Bcl-2) [%] | ASMS ratio (%) n = 2 (AS-MS, mixture library, Bcl-2) [%] | Compound | also measured |
| --- | --- | --- | --- | --- | --- |
| −1.6 | −4.7 | – | – | CCOc1cncc(-c2ccc(C(=O)N3CCN(c4ccc(C(=O)NCC56CC7CC(CC(C7)C5)C6)cc4)CC3)cc2F)c1 [B1A028-01, N-(1-Adamantylmethyl)-4-[4-[4-(5-ethoxypyridin-3-yl)-3-fluorobenzoyl]piperazin-1-yl]benzamide] | – |
| 4.8 | 4.5 | – | – | CCOc1cccc(-c2ccc(C(=O)N3CCN(c4ccc(C(=O)NCC(F)(F)F)cc4)CC3)c3ccccc23)c1 [B1K035-01, 4-[4-[4-(3-Ethoxyphenyl)naphthalene-1-carbonyl]piperazin-1-yl]-N-(2,2,2-trifluoroethyl)benzamide] | – |
| 0.0 | 0.6 | – | – | CCOc1cncc(-c2ccc(C(=O)N3CCN(c4ccc(C(=O)NCC(F)(F)F)nn4)CC3)cc2C)c1 [B1K004-01, 6-[4-[4-(5-Ethoxypyridin-3-yl)-3-methylbenzoyl]piperazin-1-yl]-N-(2,2,2-trifluoroethyl)pyridazine-3-carboxamide] | – |
| – | – | – | – | 6-[4-[2-[2-(5-Ethoxypyridin-3-yl)ethynyl]benzoyl]piperazin-1-yl]-N-propylpyridazine-3-carboxamide [B1M096-01] | ASMS ratio (%) n = 2 [2]: 0.0% |
| – | – | 0.0 | 0.0 | CCOc1cccc(-c2cc(OC)c(CN3CCN(c4ccc(C(=O)NS(=O)(=O)CC56CC7CC(CC(C7)C5)C6)nn4)CC3)c(OC)c2)c1 [B2A085-01, N-(1-Adamantylmethylsulfonyl)-6-[4-[[4-(3-ethoxyphenyl)-2,6-dimethoxyphenyl]methyl]piperazin-1-yl]pyridazine-3-carboxamide] | – |
| – | – | −3.9 | 0.2 | CCOc1cncc(-c2cc(CN3CCN(c4ccc(C(=O)NS(=O)(=O)CC56CC7CC(CC(C7)C5)C6)cc4)CC3)cc(OCC)c2)c1 [B2A056-01, N-(1-Adamantylmethylsulfonyl)-4-[4-[[3-ethoxy-5-(5-ethoxypyridin-3-yl)phenyl]methyl]piperazin-1-yl]benzamide] | – |
| 13.2 | 4.8 | – | – | CCOc1cccc(-c2ccc(CN3CCN(c4ccc(C(=O)NCC56CC7CC(CC(C7)C5)C6)cc4)CC3)c(OC)c2)c1 [B1A053-01, N-(1-Adamantylmethyl)-4-[4-[[4-(3-ethoxyphenyl)-2-methoxyphenyl]methyl]piperazin-1-yl]benzamide] | – |
| 0.0 | 4.9 | – | – | CCOc1cncc(-c2csc(C(=O)N3CCN(c4ccc(C(=O)NCC56CC7CC(CC(C7)C5)C6)nn4)CC3)c2)c1 [B1A002-01] | – |
| – | – | – | – | CCOc1cccc(-c2cc(CN3CCN(c4ccc(C(=O)NS(C)(=O)=O)nn4)CC3)cc(OC(F)(F)F)c2)c1 [B2I089-01, 6-[4-[[3-(3-Ethoxyphenyl)-5-(trifluoromethoxy)phenyl]methyl]piperazin-1-yl]-N-methylsulfonylpyridazine-3-carboxamide] | ASMS ratio (%) (n = 1): 1.4%; ASMS ratio (%) (n = 2): 0.0% |
| 9.7 | 4.0 | – | – | CCOc1cncc(-c2cc(CN3CCN(c4ccc(C(=O)NCC56CC7CC(CC(C7)C5)C6)cc4)CC3)cc(OCC)c2)c1 [B1A056-01, N-(1-Adamantylmethyl)-4-[4-[[3-ethoxy-5-(5-ethoxypyridin-3-yl)phenyl]methyl]piperazin-1-yl]benzamide] | – |
| – | – | – | – | CCOc1cccc(-c2cc(CN3CCN(c4ccc(C(=O)N(C)CC56CC7CC(CC(C7)C5)C6)nn4)CC3)cc(OC(C)C)c2)c1 [B3A083-01, N-(1-Adamantylmethyl)-6-[4-[[3-(3-ethoxyphenyl)-5-propan-2-yloxyphenyl]methyl]piperazin-1-yl]-N-methylpyridazine-3-carboxamide] | ASMS ratio (%) n = 1 [2]: 3.9%; ASMS ratio (%) n = 2 [2]: −18.6% |
| – | – | – | – | CCOc1cncc(C#Cc2cncc(C(=O)N3CCN(c4ccc(C(=O)NS(=O)(=O)CCC(F)(F)F)nn4)CC3)c2)c1 [B2N010-01, 6-[4-[5-[2-(5-Ethoxypyridin-3-yl)ethynyl]pyridine-3-carbonyl]piperazin-1-yl]-N-(3,3,3-trifluoropropylsulfonyl)pyridazine-3-carboxamide] | ASMS ratio (%) (n = 1): 0.0%; ASMS ratio (%) (n = 2): 0.0% |
| – | – | 4.8 | −10.6 | CCOc1cncc(-c2cc(CN3CCN(c4ccc(C(=O)NS(=O)(=O)CC56CC7CC(CC(C7)C5)C6)cc4)CC3)cc(OC(C)C)c2)c1 [B2A058-01, N-(1-Adamantylmethylsulfonyl)-4-[4-[[3-(5-ethoxypyridin-3-yl)-5-propan-2-yloxyphenyl]methyl]piperazin-1-yl]benzamide] | – |
| – | – | 15.6 | −17.9 | CCOc1cccc(-c2cc(CN3CCN(c4ccc(C(=O)NS(=O)(=O)c5ccc(NCCSc6ccccc6)c([N+](=O)[O-])c5)cc4)CC3)cc(C(F)(F)F)c2)c1 [B2Q061-01, 4-[4-[[3-(3-Ethoxyphenyl)-5-(trifluoromethyl)phenyl]methyl]piperazin-1-yl]-N-[3-nitro-4-(2-phenylsulfanylethylamino)phenyl]sulfonylbenzamide] | – |
| – | – | 16.5 | 0.5 | CCOc1cccc(C#Cc2cncc(C(=O)N3CCN(c4ccc(C(=O)NS(=O)(=O)c5ccc(NCCSc6ccccc6)c([N+](=O)[O-])c5)nn4)CC3)c2)c1 [B2Q009-01, 6-[4-[5-[2-(3-Ethoxyphenyl)ethynyl]pyridine-3-carbonyl]piperazin-1-yl]-N-[3-nitro-4-(2-phenylsulfanylethylamino)phenyl]sulfonylpyridazine-3-carboxamide] | – |
| – | – | 0.0 | 0.0 | CCOc1cncc(-c2csc(C(=O)N3CCN(c4ccc(C(=O)NS(C)(=O)=O)nn4)CC3)c2)c1 [B2I002-01, 6-[4-[4-(5-Ethoxypyridin-3-yl)thiophene-2-carbonyl]piperazin-1-yl]-N-methylsulfonylpyridazine-3-carboxamide] | – |
| – | – | 0.0 | 0.0 | CCOc1cccc(-c2ccc(CN3CCN(c4ccc(C(=O)NS(=O)(=O)c5ccc(NCCSc6ccccc6)c([N+](=O)[O-])c5)nn4)CC3)cc2C)c1 [B2Q073-01] | – |
| – | – | – | – | CCOc1cccc(-c2ccc(CN3CCN(c4ccc(C(=O)Nc5ccc(OC)cc5)cc4)CC3)c(OC)c2)c1 [B1O053-01, 4-[4-[[4-(3-Ethoxyphenyl)-2-methoxyphenyl]methyl]piperazin-1-yl]-N-(4-methoxyphenyl)benzamide] | ASMS ratio (%) n = 1 [2]: 2.2%; ASMS ratio (%) n = 2 [2]: −1.0% |
| – | – | – | – | CCOc1cncc(-c2cc(C(=O)N3CCN(c4ccc(C(=O)NS(=O)(=O)CCC(F)(F)F)nn4)CC3)cc(C(C)(C)C)c2)c1 [B2N016-01, 6-[4-[3-tert-Butyl-5-(5-ethoxypyridin-3-yl)benzoyl]piperazin-1-yl]-N-(3,3,3-trifluoropropylsulfonyl)pyridazine-3-carboxamide] | ASMS ratio (%) (n = 1): 0.0%; ASMS ratio (%) (n = 2): 0.0% |
| 1.4 | 0.7 | – | – | CCOc1cncc(-c2cc(CN3CCN(c4ccc(C(=O)NCC(F)(F)F)cc4)CC3)cc(OC(F)(F)F)c2)c1 [B1K064-01, 4-[4-[[3-(5-Ethoxypyridin-3-yl)-5-(trifluoromethoxy)phenyl]methyl]piperazin-1-yl]-N-(2,2,2-trifluoroethyl)benzamide] | – |

| Compound | ASMS ratio (%) n = 1 [1] [%] | ASMS ratio (%) n = 2 [1] [%] | ASMS ratio (%) n = 1 (AS-MS, mixture library, Bcl-2) [%] | ASMS ratio (%) n = 2 (AS-MS, mixture library, Bcl-2) [%] | also measured |
| --- | --- | --- | --- | --- | --- |
| 6-[4-[[4-(3-Ethoxyphenyl)thiophen-2-yl]methyl]piperazin-1-yl]-N-propylpyridazine-3-carboxamide [B1M049-01] | −0.9 | −0.4 | – | – | – |
